Experimental data published in patent publication US20160324981A1, “LIVER X RECEPTOR AGONISTS AND USES THEREOF” (The California Institute for Biomedical Research, priority 2015, published 2016).
Each block holds one molecule with its values, some of them ahead of it.

Assays:
LXR-α = biological target: T1, LXR-α (Homo sapiens, UniProt Q13133); assay: LanthaScreen TR-FRET LXR alpha Coactivator binding assay; settings: EC50 (AC50) from fitted curve, read-out: binding affinity for LXR-α
T1 construct: purchased Life Technologies PV4655
T1 sequence (Q13133 209-447 limits assumed): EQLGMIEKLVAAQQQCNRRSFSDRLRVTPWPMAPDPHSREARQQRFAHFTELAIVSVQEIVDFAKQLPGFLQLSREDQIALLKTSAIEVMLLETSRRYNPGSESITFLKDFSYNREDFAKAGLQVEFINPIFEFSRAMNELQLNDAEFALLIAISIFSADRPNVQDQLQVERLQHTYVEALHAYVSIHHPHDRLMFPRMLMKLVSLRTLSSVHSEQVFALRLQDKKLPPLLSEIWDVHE

LXR-β = biological target: T2, LXR-β (Homo sapiens, UniProt P55055); assay: LanthaScreen TR-FRET LXR beta Coactivator binding assay; settings: EC50 (AC50) from fitted curve, read-out: binding affinity for LXR-β
T2 construct: purchased Life Technologies PV4658
T2 sequence (P55055 222-460 limits assumed): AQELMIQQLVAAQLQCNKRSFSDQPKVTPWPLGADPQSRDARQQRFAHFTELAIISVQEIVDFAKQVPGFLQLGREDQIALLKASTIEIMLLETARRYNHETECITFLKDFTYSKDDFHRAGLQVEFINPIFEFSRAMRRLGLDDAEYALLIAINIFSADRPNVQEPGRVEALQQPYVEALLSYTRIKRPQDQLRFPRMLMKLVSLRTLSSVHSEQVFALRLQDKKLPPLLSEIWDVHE

[1] = tested on: LXR-α transcriptional response element; assay: In vitro LXR transactivation (luciferase reporter) assay in THP-1 cells; type: cell-based; settings: Homo sapiens, 24 hours, read-out: EC50 (LXR agonist activity)
Procedure: (§1) Next, the in vitro activity of the anti-CD11a IgGX-CatB-LXR agonist was evaluated using an LXR-driven luciferase stably incorporated into THP-1 and HepG2 cells. This vector encodes the firefly luciferase reporter gene under the control of a CMV promoter and tandem repeats of the LXR-α transcriptional response element. […] Cells were then treated with ONE-Glo and luminescence was read on an Envision plate reader.
(§2) THP-1 cells and HepG2 cells (ATCC) were seeded at 0.6×10^6 cells/well in Opti-MEM media in a 6-well plate and allowed to incubate overnight at 37° C. Afterwards, 50 μL of Cignal lenti LXR-α luciferase reporter (cat no: CLS-7041L, Qiagen) was added to the wells with gentle mixing. After 48 h, the media was changed to completed growth media that was supplemented with 1 μg/mL puromycin. After 24 h, positively transfected cells were cultured for one week in puromycin-containing media.

[2] = tested on: LXR-α transcriptional response element; assay: In vitro LXR transactivation (luciferase reporter) assay in HepG2 cells; type: cell-based; settings: 24 hours, presence or absence of 10% human AB serum
Procedure: as §1, §2

[3] = biological target: T3, CD11a (alpha-chain component of lymphocyte function-associated antigen 1, LFA-1) on human THP-1 … (human, UniProt P20701 26-1170); assay: flow cytometry on THP-1 cells in the presence of Fc block
T3 construct: whole, on cells; Endogenous on THP-1 cells, where it stands with its partner chain in LFA-1; also called LFA-1 alpha chain
Procedure: Cells were incubated either with 2 nM of the dye-conjugated antibodies or with increasing concentrations of antibody (0-50 nM, right) for 1 h at 4° C. in the presence of Fc block (Human Fc block, BD Biosciences).
Because monocytes/macrophages have Fcγ receptors, the binding in the presence of an Fc blocking reagent was also examined (BD biosciences). […] Furthermore, binding of anti-Her2 to THP-1 cells at different concentrations, with or without Fc block treatment was performed (FIG. 9B).

T3 sequence (P20701 26-1170): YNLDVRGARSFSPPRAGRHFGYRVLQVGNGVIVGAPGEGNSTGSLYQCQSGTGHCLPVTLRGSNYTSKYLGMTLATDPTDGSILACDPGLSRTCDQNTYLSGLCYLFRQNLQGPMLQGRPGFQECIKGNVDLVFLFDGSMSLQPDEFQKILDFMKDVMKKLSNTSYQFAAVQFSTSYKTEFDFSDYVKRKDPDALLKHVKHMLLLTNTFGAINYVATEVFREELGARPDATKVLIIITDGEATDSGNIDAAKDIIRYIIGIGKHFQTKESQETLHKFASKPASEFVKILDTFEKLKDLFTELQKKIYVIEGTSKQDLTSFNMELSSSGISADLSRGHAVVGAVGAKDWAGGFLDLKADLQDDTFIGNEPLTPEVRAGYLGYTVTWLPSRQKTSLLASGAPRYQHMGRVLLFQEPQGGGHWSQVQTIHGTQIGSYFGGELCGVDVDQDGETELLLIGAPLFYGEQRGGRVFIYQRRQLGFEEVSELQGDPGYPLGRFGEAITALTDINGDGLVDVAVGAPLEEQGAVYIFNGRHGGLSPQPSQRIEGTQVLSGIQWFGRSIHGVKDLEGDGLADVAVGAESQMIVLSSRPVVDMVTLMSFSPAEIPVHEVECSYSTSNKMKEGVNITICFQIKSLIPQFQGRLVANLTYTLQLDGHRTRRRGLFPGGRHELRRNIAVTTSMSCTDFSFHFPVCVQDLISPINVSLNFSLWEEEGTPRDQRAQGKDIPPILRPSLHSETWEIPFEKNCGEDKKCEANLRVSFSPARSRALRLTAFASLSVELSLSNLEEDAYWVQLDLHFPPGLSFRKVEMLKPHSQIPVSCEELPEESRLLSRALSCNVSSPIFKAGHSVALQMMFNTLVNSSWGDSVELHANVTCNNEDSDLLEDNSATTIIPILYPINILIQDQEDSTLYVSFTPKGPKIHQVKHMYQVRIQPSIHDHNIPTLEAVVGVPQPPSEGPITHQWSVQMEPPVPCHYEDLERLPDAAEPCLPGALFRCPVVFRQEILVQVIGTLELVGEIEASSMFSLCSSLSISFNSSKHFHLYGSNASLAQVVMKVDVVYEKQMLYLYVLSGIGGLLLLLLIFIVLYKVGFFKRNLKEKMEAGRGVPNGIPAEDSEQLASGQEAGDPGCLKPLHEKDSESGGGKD

EC50 (LXR-α): 1.5 nM
EC50 (LXR-β): 12 nM
Molecule: CCc1cnc2c(C(F)(F)F)cccc2c1-c1cccc(Oc2cccc(S(=O)(=O)N(C)CCN)c2)c1 [compound 3]

EC50 (LXR-α): 1.1 nM
EC50 (LXR-β): 0.5 nM
Molecule: O=C(O)Cc1cccc(OCCCN(Cc2cccc(C(F)(F)F)c2Cl)CC(c2ccccc2)c2ccccc2)c1 [compound 1, GW3965, reference compound]

EC50 [1]: 79 ± 1.1 nM
Molecule: O=S(=O)(c1ccccc1)N(CC(F)(F)F)c1ccc(C(O)(C(F)(F)F)C(F)(F)F)cc1 [compound 2, T0901317]
LXR activation in HepG2 cells [2]: equipotent in these cells relative to THP-1

Kd [3]: ~0.5 nM
B1: anti-CD11a A122pAcF IgG conjugated to Alexa Fluor 488 (anti-CD11a IgGX-AF488) (antibody, V domains shown)
VH: EVQLVESGGGLVQPGGSLRLSCAASGYSFTGHWMNWVRQAPGKGLEWVGMIHPSDSETRYNQKFKDRFTISVDKSKNTLYLQMNSLRAEDTAVYYCARGIYFYGTTYFDYWGQGTLVTVSS
VL: DIQMTQSPSSLSASVGDRVTITCRASKTISKYLAWYQQKPGKAPKLLIYSGSTLQSGVPSRFSGSGSGTDFTLTISSLQPEDFATYYCQQHNEYPLTFGQGTKVEIKR
modifications: para-acetylphenylalanine (pAcF) at position A122 (the X in SEQ ID NO 10), oxime-linked to aminooxy-Alexa Fluor 488
notes: Humanized monoclonal anti-CD11a IgG made in CHO cells; The unnatural amino acid pAcF sits at heavy chain position A122; also called anti-CD11a pAcF IgGX
